{"source": "patent US10702472B2", "about": "“Production method of edible sustained-release functional material and edible sustained-release functional material” (AOBAKASEI KABUSHIKI KAISHA, priority 2017, dated 2020)", "origin": "cited, not measured here", "conditions": "generally known value", "data": [{"compound": "O=C[C@H](O)[C@@H](O)[C@H](O)[C@H](O)CO", "note": "[glucose]", "values": [{"measurement": "collapse temperature", "value": "−40", "unit": "°C"}]}]}
